The test system of assay [1] is intestinal calcium transport. The assay can be described thus: intestinal calcium transport activity. The conditions noted are these: in vivo.
A short description of assay [2]: biological testing of 10,19-dihydrovitamin D3 compounds, in vivo biological response. The conditions noted are these: compared among the 1α,25-dihydroxy-10,19-dihydrovitamin D3 compounds tested.

Turning to `CC(CCCC(C)(C)O)C1CCC2C(=CC=C3CC(O)CC(O)C3C)CCCC21C` [1α,25-dihydroxy-10(S), 19-dihydrovitamin D3], in assay [1], the “activity on intestinal calcium transport” value is listed as “very significant activity”. In addition, the “in vivo biological response” value in assay [2] is reported as “greatest in vivo biological response”.
